{"source": "patent EP0567026B1", "about": "“4,1-Benzoxazepin derivatives as squalene synthase inhibitors and their use in the treatment of hypercholesteremia and as fungicides” (TAKEDA CHEMICAL INDUSTRIES, LTD., priority 1992, dated 1993)", "test_system": "hepatic cholesterogenesis", "assay": "In vivo cholesterogenesis in the liver ([14C]acetate incorporation into digitonin-precipitable hepatic sterols)", "conditions": "male Sprague-Dawley rats on 5%-cholestylamine diet for 4 days; dose of 30 mg/kg as suspension in 0.5%-methylcellulose; [14C]acetate i.v. 1 hour after administration, livers removed one hour later; compared to the control group", "procedure": "Six-week-old, male Sprague-Dawley rats were given 5%-cholestylamine as a dietary admixture for 4 days. They were administered compound at a dose of 30 mg/kg as a suspension of 0.5%-methylcellulose solution and were intravenously given 2 uCi of [^14C]acetate 1 hour after the administration. One hour later, rats were sacrificed and livers were removed. Hepatic sterols were extracted with petroleum ether after saponification, and the radioactivity of digitonin-precipitable fraction was measured. Example 1-(4) inhibited the hepatic cholesterogenesis by 38% compared to the control group given only […] solution.", "data": [{"smiles": "CCOC(=O)CC1OC(c2ccccc2Cl)c2cc(Cl)ccc2N(CC(C)(C)C)C1=O", "note": "(stereo not shown) [Example 1-(4)]", "values": [{"measurement": "inhibited the hepatic cholesterogenesis", "result": 38, "unit": "%"}]}]}
